By pIC50 is commonly meant −log10 of the IC50, conventionally taken in molar units. As a reminder, the inhibition is the relative decrease from the control value, in per cent.

pIC50: −log10 of the molar value. Calls of active or inactive are those of the source. The rule behind the calls is not given here.

Drawing on ChEMBL document CHEMBL5390208, “Bioactive Isoquinoline Alkaloids with Diverse Skeletons from Fissistigma polyanthum” (J Nat Prod, 2023), this text covers IC50, Ratio IC50 and inhibition for 21 molecules.

In one test the target is Acetylcholinesterase (Homo sapiens, UniProt P22303). Put plainly: Inhibition of AChE (unknown origin) using ATCI as substrate preincubated for 15 min followed by substrate addition measured after 40 min by Ellman's method. (In general: In Ellman's method for cholinesterases, released thiocholine reacts with DTNB.)
For the next test, the target named is Cholinesterase (Homo sapiens, UniProt P06276). Description: Inhibition of BChE (unknown origin) using BTCI as substrate preincubated for 15 min followed by substrate addition measured after 40 min by Ellman's method.
Test [1] is described as follows: Antioxidant activity assessed as ABTS radical scavenging activity incubated for 10 min by spectrophotometric analysis. The test is classed as functional.
Test [2] is described as follows: Selectivity ratio, ratio of inhibition of BChE (unknown origin) to inhibition of AChE (unknown origin).
The target of test [3] is T1, Amyloid-beta precursor protein (Homo sapiens, UniProt P05067). Put plainly: Inhibition of amyloid beta 42 (unknown origin) aggregation at 50 uM incubated for 24 hrs by ThT assay relative to control.
Test [4] addresses T1, Amyloid-beta precursor protein. Put plainly: Inhibition of amyloid beta 42 (unknown origin) aggregation incubated for 24 hrs by ThT assay.
The target is the same in test [5]. Description: Inhibition of amyloid beta 42 (unknown origin) aggregation assessed as reduction in amyloid beta fibril formation incubated for 72 hrs by Congo Red dye based UV- spectrophotometric analysis.

T1 sequence (P05067 whole entry): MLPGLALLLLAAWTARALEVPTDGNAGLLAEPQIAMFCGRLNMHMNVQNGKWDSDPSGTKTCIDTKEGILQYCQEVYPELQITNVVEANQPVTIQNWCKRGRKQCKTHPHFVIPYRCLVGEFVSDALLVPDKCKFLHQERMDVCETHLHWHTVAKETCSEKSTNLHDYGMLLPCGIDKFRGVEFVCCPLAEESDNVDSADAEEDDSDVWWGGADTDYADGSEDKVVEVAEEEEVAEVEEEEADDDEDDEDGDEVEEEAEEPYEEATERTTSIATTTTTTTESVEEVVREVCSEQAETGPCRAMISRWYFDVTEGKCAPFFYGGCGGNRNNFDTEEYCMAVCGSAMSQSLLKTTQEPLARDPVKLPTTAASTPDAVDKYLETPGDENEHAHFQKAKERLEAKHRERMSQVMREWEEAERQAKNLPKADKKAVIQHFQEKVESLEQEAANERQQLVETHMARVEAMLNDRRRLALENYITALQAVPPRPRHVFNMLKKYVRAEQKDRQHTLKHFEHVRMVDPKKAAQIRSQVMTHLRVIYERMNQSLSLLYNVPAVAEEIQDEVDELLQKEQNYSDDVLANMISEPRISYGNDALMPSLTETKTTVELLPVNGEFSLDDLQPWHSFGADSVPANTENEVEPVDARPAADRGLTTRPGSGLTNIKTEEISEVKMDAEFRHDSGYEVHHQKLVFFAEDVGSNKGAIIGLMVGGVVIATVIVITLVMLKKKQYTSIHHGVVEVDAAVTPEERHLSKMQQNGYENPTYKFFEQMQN
Chain of Cholinesterase (P06276 whole entry): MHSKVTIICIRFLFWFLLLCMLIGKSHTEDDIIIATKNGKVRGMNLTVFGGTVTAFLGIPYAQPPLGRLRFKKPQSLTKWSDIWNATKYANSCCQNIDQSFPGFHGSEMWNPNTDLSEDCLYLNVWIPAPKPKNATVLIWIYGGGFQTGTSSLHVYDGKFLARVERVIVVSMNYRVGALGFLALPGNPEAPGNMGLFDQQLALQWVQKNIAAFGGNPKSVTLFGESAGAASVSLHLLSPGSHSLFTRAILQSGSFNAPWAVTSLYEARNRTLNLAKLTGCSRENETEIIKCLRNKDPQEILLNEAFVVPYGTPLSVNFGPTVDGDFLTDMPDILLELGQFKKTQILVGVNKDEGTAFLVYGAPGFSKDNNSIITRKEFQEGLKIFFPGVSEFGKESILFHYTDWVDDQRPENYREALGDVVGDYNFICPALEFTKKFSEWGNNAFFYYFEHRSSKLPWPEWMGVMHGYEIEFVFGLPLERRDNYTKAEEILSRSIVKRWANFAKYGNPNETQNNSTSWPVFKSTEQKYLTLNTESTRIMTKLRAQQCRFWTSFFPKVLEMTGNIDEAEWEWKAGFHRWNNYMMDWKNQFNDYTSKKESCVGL
Chain of Acetylcholinesterase (P22303 whole entry): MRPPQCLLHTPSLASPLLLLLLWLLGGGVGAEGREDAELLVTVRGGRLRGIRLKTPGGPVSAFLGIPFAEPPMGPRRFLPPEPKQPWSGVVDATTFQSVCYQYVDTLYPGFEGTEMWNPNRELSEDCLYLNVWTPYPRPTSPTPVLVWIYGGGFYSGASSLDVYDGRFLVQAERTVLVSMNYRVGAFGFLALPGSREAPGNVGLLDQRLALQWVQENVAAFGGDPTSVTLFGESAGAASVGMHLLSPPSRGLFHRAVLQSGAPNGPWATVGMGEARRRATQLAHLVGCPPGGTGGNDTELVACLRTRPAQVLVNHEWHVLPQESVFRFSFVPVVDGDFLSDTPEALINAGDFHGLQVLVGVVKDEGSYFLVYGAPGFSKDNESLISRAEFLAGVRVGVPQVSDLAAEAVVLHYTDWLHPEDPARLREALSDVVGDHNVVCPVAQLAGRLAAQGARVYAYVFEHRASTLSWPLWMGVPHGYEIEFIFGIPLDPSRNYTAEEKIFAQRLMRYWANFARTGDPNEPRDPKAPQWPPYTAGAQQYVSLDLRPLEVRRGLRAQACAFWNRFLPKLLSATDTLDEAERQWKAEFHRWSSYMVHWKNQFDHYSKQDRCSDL

With `COc1cc2c(c(O)c1OC)CC[N@+]1(C)Cc3c(ccc(O)c3OC)C[C@@H]21`, the pIC50 against Acetylcholinesterase was 3.88; at Cholinesterase, < 3.52; in test [1], 4.36. The Ratio IC50 in test [2] was > 2.3. The inhibition result in test [3] is “inactive”.
For `COc1cc2c(c(O)c1OC)CC[n+]1cc3c(OC)c(O)ccc3cc1-2`, the pIC50 at Acetylcholinesterase was 4.79; on Cholinesterase, < 3.52; in test [1] it was < 4.30. Also, in test [2], the Ratio IC50 is > 18.3. For the same molecule, the inhibition result in test [3] is “inactive”.
With `COc1ccc2c(c1)C[C@@H]1c3c(cc4c(c3-2)OCO4)CCN1C`, the negative logarithm of the IC50 (pIC50) at Acetylcholinesterase was 4.58; at Cholinesterase it was 4.44; in test [1], < 4.30; in test [4], < 4.30. The Ratio IC50 in test [2] was found to be 1.4. This molecule also came in with an inhibition in test [3] of 38.2%.
Consider `COc1ccc2c(c1OC)c1c3c4c(cc5c(c42)OCO5)CCN3C(=O)C1=O`, for which the pIC50 was 4.48 against Acetylcholinesterase, 3.60 against Cholinesterase, < 4.30 in test [1] and < 4.30 in test [4]. Moreover, the Ratio IC50 in test [2] was 7.6. In addition, in test [3], the inhibition was 10.9%.
As to `COC1=CC(=O)c2c(cc3c4c(cc5c(c24)OCO5)CCN3C)C1=O`, the negative logarithm of the IC50 (pIC50) on Acetylcholinesterase is 3.66; against Cholinesterase it was 4.08; in test [1], < 4.30; in test [4], < 4.30. Besides, the Ratio IC50 in test [2] was found to be 0.4. For the same molecule, in test [3], the inhibition was 30.7%.
Turning to `O=C1C(=O)N2CCc3cc4c(c5c3c2c1c1ccccc15)OCO4`, the negative-log IC50 (pIC50) at Acetylcholinesterase is 4.29; on Cholinesterase, 4.86; in test [1], < 4.30; in test [4], < 4.30. Also, in test [2], the Ratio IC50 worked out at 0.3. Moreover, the inhibition in test [3] is 47.6%.
On to `COc1cc2c(cc1O)[C@@H]1Cc3ccc(OC)c(O)c3CN1CC2` [SCOULERINE], for which the negative logarithm of the IC50 (pIC50) at Acetylcholinesterase was 3.84; at Cholinesterase it was 4.21; in test [1], 4.36; in test [4], < 4.30. The Ratio IC50 in test [2] came to 0.4. The molecule also gave an inhibition in test [3] of 3.3%.
As to `COc1cc(O)c2c(c1)C[C@@H]1c3c(cc4c(c3-2)OCO4)CCN1C`, the pIC50 against Acetylcholinesterase was 4.07; against Cholinesterase, 4.02; in test [1], 4.83; in test [4], < 4.30. The Ratio IC50 in test [2] was found to be 1.1. This molecule also gave an inhibition in test [3] of 15.1%.
On to `COc1ccc(C[C@H]2c3c(ccc(OC)c3O)CCN2C)cc1`, for which the pIC50 on Acetylcholinesterase was 4.59; against Cholinesterase, 4.48; in test [1] it was 4.42; in test [4], < 4.30. Also, the Ratio IC50 in test [2] was 1.3. Also, the inhibition in test [3] worked out at 26.6%.
`COc1cc(O)c2c(c1)C[C@H]1NCCc3cc4c(c-2c31)OCO4`: the negative logarithm of the IC50 (pIC50) at Acetylcholinesterase is < 3.52; on Cholinesterase it was < 3.52; in test [1], < 4.30; in test [4] it was < 4.30. Also, in test [3], the inhibition was determined as 10.2%.
On to `COc1ccc2c(c1)C(=O)c1nccc3cc4c(c-2c13)OCO4` [ATHEROSPERMIDINE], for which the pIC50 against Acetylcholinesterase was 4.96; against Cholinesterase, < 3.52; in test [1], < 4.30; in test [4], 4.50. In test [5], the inhibition result is “Active”. In addition, the Ratio IC50 in test [2] was > 27.5. For the same molecule, the inhibition in test [3] came to 86.2%.
Consider `COc1cc2c(cc1OC)[C@@H]1Cc3ccc(O)c(OC)c3CN1CC2`, for which the pIC50 against Acetylcholinesterase was 3.68; against Cholinesterase, 3.91; in test [1], < 4.30; in test [4], < 4.30. The Ratio IC50 in test [2] was found to be 0.6. The inhibition in test [3] was determined as 10.7%.
With `COc1cc2c(cc1O)CC[n+]1cc3c(OC)c(O)ccc3cc1-2`, the pIC50 against Acetylcholinesterase is 4.75; at Cholinesterase, 3.93; in test [1], 4.58; in test [4] it was 4.30. In addition, the Ratio IC50 in test [2] is 6.7. In test [3], this molecule registered an inhibition of 30%.
Regarding `COc1cc(O)c2c(c1)C[C@H]1NCCc3c(OC)c4c(c-2c31)OCO4`, the pIC50 against Acetylcholinesterase is 3.79; on Cholinesterase it was 3.85; in test [1] it was 4.87; in test [4], < 4.30. In addition, the Ratio IC50 in test [2] was found to be 0.9. Moreover, in test [3], the inhibition was found to be 44.5%.
As for `COC1=C(CC(=O)CCc2ccccc2)C(=O)O[C@@H]1O`, the pIC50 at Acetylcholinesterase is < 3.52; on Cholinesterase, < 3.52; in test [1], < 4.30; in test [4] it was 4.58. Further, the inhibition result in test [5] is “Active”. In test [3], the inhibition amounted to 74.4%.
On to `COc1ccc2c(c1)C[C@H]1NCCc3cc4c(c-2c31)OCO4`, for which the negative logarithm of the IC50 (pIC50) at Acetylcholinesterase was 3.90; on Cholinesterase, 4.16; in test [1], < 4.30; in test [4] it was < 4.30. Moreover, in test [2], the Ratio IC50 was 0.5. The molecule also yielded an inhibition in test [3] of 28%.
Turning to `COc1cc(O)c2c(c1)C[C@@H]1c3c(cc4c(c3-2)OCO4)CC[N@+]1(C)[O-]`, the pIC50 on Acetylcholinesterase is < 3.52; against Cholinesterase, < 3.52; in test [1] it was 5.00; in test [4], < 4.30. Also, in test [3], the inhibition came out at 37.9%.
In the case of `COc1cc(O)cc2c1-c1c3c(cc4c1[C@@H](C2)N(C)CC4)OCO3`, the negative logarithm of the IC50 (pIC50) against Acetylcholinesterase is < 3.52; at Cholinesterase, < 3.52; in test [1] it was 4.78; in test [4] it was 4.45. The inhibition result in test [5] was “Active”. The molecule further had an inhibition in test [3] of 76%.
`COc1cc(O)c2c(c1)C[C@@H]1c3c(cc4c(c3-2)OCO4)CC[N@@+]1(C)[O-]`: the negative logarithm of the IC50 (pIC50) is < 3.52 against Acetylcholinesterase, < 3.52 at Cholinesterase, < 4.30 in test [1] and < 4.30 in test [4]. For the same molecule, in test [3], the inhibition worked out at 32.8%.
With `COc1cc2c(c(O)c1OC)CCN1Cc3c(ccc(O)c3OC)C[C@@H]21`, the negative-log IC50 (pIC50) against Acetylcholinesterase is 4.05; against Cholinesterase, < 3.52; in test [1], < 4.30. In addition, the Ratio IC50 in test [2] was > 3.4. The inhibition entry in test [3] is “inactive”.
Consider `Cc1c(C)c2c(c(C)c1O)CCC(C)(C(=O)O)O2` (stereo unspecified) [TROLOX], for which the pIC50 in test [1] is 4.96.
